Consider one compound from patent US20040087553A1, “Hypoestoxides, derivatives and agonists thereof for use in the treatment and prophylaxis of hyperlipidemia” (Paraquest, Inc., priority 2002, published 2004).

This test can be described thus: Effect of oral hypoestoxide on blood cholesterol and triglyceride levels in a beagle dog (standard colorimetric method on sera). Type of test: in vivo. The following applies: 30 mg/kg oral once daily for seven days; for Triglycerides / Cholesterol: dog serum; for Triglycerides: day −1 value 300; for Cholesterol: day −1 value 308. Here is the method:
In one example, hypoestoxide was administered orally to a 2-year-old female beagle dog at a dose of 30 mg/kg, once daily for seven days. Blood cholesterol and triglyceride levels were determined in sera obtained at days 1, 3, 7 and 14, respectively. Assays were performed by a standard colorimetric method by a commercial laboratory (Antech Diagnostics, Irvine, Calif.).

Regarding `C=C1C(=O)C[C@H]2C[C@@H]3O[C@@]3(C)CC[C@@H]3O[C@@]3(C)C[C@@H](OC(C)=O)[C@H]1C2(C)C` [hypoestoxide], the “blood cholesterol and triglyceride levels (effect in words)” value (beagle dog) is listed as “significantly lowered”. The Triglycerides by setting is: (day 1, normal reference range 29-291) 296 mg/dL; (day 3) 70 mg/dL; (day 7) 33 mg/dL; (day 14) 51 mg/dL. Also, the Cholesterol amounted to 122 mg/dL (day 1, normal reference range 92-324); 130 mg/dL (day 3); 124 mg/dL (day 7); 134 mg/dL (day 14).
